Laboratory results taken from patent US7858349B2, “Anti-cancer compounds” (The Regents of the University of Colorado, priority 1999, dated 2010).

Columns and labels:
PC3 PC cells = assay: Inhibition of PC3 tumor growth in vivo in nude mice; set-up: species or system athymic nude mice; key to PC3 In vivo % inhib.: an IC50 value of “0” represents no detectable anti-cancer activity for a drug in a given cell line; “Stim.” indicates the observation of a stimulatory activity on the growth of the cancer cell line; conditions: percent inhibition of tumor growth in nude mice; prostate cancer; i.p. 5 mg/kg/every second day or 10 mg/kg/every fourth day
Description: Compounds having high in vitro cytotoxic activity were tested against implanted tumors in vivo. Athymic nude mice were implanted subcutaneously with suspensions (2 million SHP-77 SCLC cells, 1 million A549 NSCLC cells or 1.5 million PC3 PC cells) in Matrigel suspension. On the eighth day after tumor implantation groups of 5 mice bearing implants were injected intraperitoneally with the compounds being tested at 5 mg/kg/every second day or at 10 mg/kg/every fourth day; control animals were injected with an equal volume of isotonic saline. Less soluble compounds were initially dissolved in dimethyl sulfoxide (DMSO) and diluted with medium. In those cases the control injections contained the same concentration of DMSO. Tumor size was measured with a caliper three times per week. Tumor volume was calculated by the formula: Volume(cc)=3.14×(length)×(width)^2/6 At autopsy tumors were removed and weighed. Tumor inhibition was calculated on both weight and measurement basis. In each Table, an IC50 value of “0” represents no detectable anti-cancer activity for a drug in a given cell line and “Stim.” indicates the observation of a stimulatory activity on the growth of the cancer cell line.

SCLC strain SHP-77 = assay: MTT assay for cell survival, SCLC SHP-77 in vitro; assay type: cell-based, human; conditions: ED50 for killing of SCLC strain SHP-77 in vitro, 4 days, 0 = no detectable activity, read-out: SCLC SHP-77 IC50

CC1(C)CC(NC(=O)C(Cc2ccc(OCc3c(Cl)cccc3Cl)cc2)NC(=O)COc2c(F)c(F)c(F)c(F)c2F)CC(C)(C)N1 (stereo not drawn) [Analog M-1358, F5po-OC2Y-Atmp]
PC3 In vivo % inhib. (PC3 PC cells): 30%
IC50 (SCLC strain SHP-77): 4.1 µM

CC1(C)CC(NC(=O)C(Cc2ccc(OCc3c(Cl)cccc3Cl)cc2)NC(=O)c2c(F)c(F)c(F)c(F)c2F)CC(C)(C)N1 (stereo not drawn) [Analog M-1360, F5bz-OC2Y-Atmp]
PC3 In vivo % inhib. (PC3 PC cells): Stim.
IC50 (SCLC strain SHP-77): 4.1 µM

CC1(C)CC(NC(=O)C(Cc2ccc(OCc3c(Cl)cccc3Cl)cc2)NC(=O)C2=CN3CCC2CC3)CC(C)(C)N1 (stereo not drawn) [Analog M-1396, Dhq-OC2Y-Atmp]
PC3 In vivo % inhib. (PC3 PC cells): 9%
IC50 (SCLC strain SHP-77): 15 µM

CC1(C)CC(NC(=O)C(Cc2ccc(OCc3c(Cl)cccc3Cl)cc2)NC(=O)C#Cc2ccccc2)CC(C)(C)N1 (stereo not drawn) [Analog M-1398, Ppr-OC2Y-Atmp]
PC3 In vivo % inhib. (PC3 PC cells): 65%
IC50 (SCLC strain SHP-77): 8 µM

CC1(C)CC(NC(=O)C(Cc2ccc(OCc3c(Cl)cccc3Cl)cc2)NC(=O)C(=Cc2ccccc2)c2ccccc2)CC(C)(C)N1 (stereo not drawn) [Analog M-1400, Pcn-OC2Y-Atmp]
PC3 In vivo % inhib. (PC3 PC cells): Stim.
IC50 (SCLC strain SHP-77): 1.3 µM

CC1(C)CC(NC(=O)C(Cc2ccc(OCc3c(Cl)cccc3Cl)cc2)NC(=O)C2C(C)(C)C2(C)C)CC(C)(C)N1 (stereo not drawn) [Analog M-1406, Tmcc-OC2Y-Atmp]
PC3 In vivo % inhib. (PC3 PC cells): 25%
IC50 (SCLC strain SHP-77): 5.3 µM

COc1cc(C(=O)NC(Cc2ccc(OCc3c(Cl)cccc3Cl)cc2)C(=O)NC2CC(C)(C)NC(C)(C)C2)cc(OC)c1OC (stereo not drawn) [Analog M-1408, 3,4,5Tmb-OC2Y-Atmp]
PC3 In vivo % inhib. (PC3 PC cells): Stim.
IC50 (SCLC strain SHP-77): 8 µM

CCCCCC=CC(=O)NC(Cc1ccc(OCc2c(Cl)cccc2Cl)cc1)C(=O)NC1CC(C)(C)NC(C)(C)C1 (stereo not drawn) [Analog M-1412, 2Octe-OC2Y-Atmp]
PC3 In vivo % inhib. (PC3 PC cells): 38%
IC50 (SCLC strain SHP-77): 12 µM

CC1(C)CC(NC(=O)C(Cc2ccc(OCc3c(Cl)cccc3Cl)cc2)NC(=O)C=Cc2ccc3c(c2)OCO3)CC(C)(C)N1 (stereo not drawn) [Analog M-1414, 34Mdc-OC2Y-Atmp]
PC3 In vivo % inhib. (PC3 PC cells): Stim.
IC50 (SCLC strain SHP-77): 7.1 µM

CC1(C)CC(NC(=O)C(Cc2ccc(OCc3c(Cl)cccc3Cl)cc2)NC(=O)C=Cc2cccs2)CC(C)(C)N1 (stereo not drawn) [Analog M-1418, Thia-OC2Y-Atmp]
PC3 In vivo % inhib. (PC3 PC cells): 9%
IC50 (SCLC strain SHP-77): 8.6 µM

CC1(C)CC(NC(=O)C(Cc2ccc(OCc3c(Cl)cccc3Cl)cc2)NC(=O)c2c(F)c(N)cc(F)c2F)CC(C)(C)N1 (stereo not drawn) [Analog M-1420, Atfb-OC2Y-Atmp]
PC3 In vivo % inhib. (PC3 PC cells): Stim.
IC50 (SCLC strain SHP-77): 12 µM

CC1(C)CC(NC(=O)C(Cc2ccc(OCc3c(Cl)cccc3Cl)cc2)NC(=O)C2(c3ccc(Cl)cc3)CC2)CC(C)(C)N1 (stereo not drawn) [Analog M-1422, Cpcpc-OC2Y-Atmp]
PC3 In vivo % inhib. (PC3 PC cells): 31%
IC50 (SCLC strain SHP-77): 13 µM

Cc1ccc(CSC(C)(C)C(NC(=O)C=Cc2c(F)c(F)c(F)c(F)c2F)C(=O)NC2CC(C)(C)NC(C)(C)C2)cc1 (stereo not drawn) [Analog M-1430, F5c-Pen(Mbzl)-Atmp]
PC3 In vivo % inhib. (PC3 PC cells): 50%
IC50 (SCLC strain SHP-77): 6.1 µM

CC1(C)CC(NC(=O)C(Cc2ccc(OCc3c(Cl)cccc3Cl)cc2)NC(=O)C2CCc3ccccc3C2)CC(C)(C)N1 (stereo not drawn) [Analog M-1440, Th2n-OC2Y-Atmp]
PC3 In vivo % inhib. (PC3 PC cells): 15%
IC50 (SCLC strain SHP-77): 3.5 µM

CCCCC/C=C\C/C=C\C/C=C\C/C=C\CCCC(=O)NC(Cc1ccc(OCc2c(Cl)cccc2Cl)cc1)C(=O)NC1CC(C)(C)NC(C)(C)C1 (stereo not drawn) [Analog M-1442, Arac-OC2Y-Atmp]
PC3 In vivo % inhib. (PC3 PC cells): 31%
IC50 (SCLC strain SHP-77): 6.4 µM

CC1(C)CC(NC(=O)C(Cc2ccc(OCc3c(Cl)cccc3Cl)cc2)NC(=O)/C=C/c2cc(C(F)(F)F)cc(C(F)(F)F)c2)CC(C)(C)N1 (stereo not drawn) [Analog M-1444, Tf2c-OC2Y-Atmp]
PC3 In vivo % inhib. (PC3 PC cells): 11%
IC50 (SCLC strain SHP-77): 1.4 µM

CC(C=CC1=C(C)CCCC1(C)C)=CC=CC(C)=CC(=O)NC(Cc1ccc(OCc2c(Cl)cccc2Cl)cc1)C(=O)NC1CC(C)(C)NC(C)(C)C1 (stereo not drawn) [Analog M-1446, Ret-OC2Y-Atmp]
PC3 In vivo % inhib. (PC3 PC cells): 60%
IC50 (SCLC strain SHP-77): 6.7 µM

CC1(C)CC(NC(=O)C(Cc2ccc(OCc3c(Cl)cccc3Cl)cc2)NC(=O)CC2Cc3ccccc3C2)CC(C)(C)N1 (stereo not drawn) [Analog M-1448, 2Ina-OC2Y-Atmp]
PC3 In vivo % inhib. (PC3 PC cells): 11%
IC50 (SCLC strain SHP-77): 13 µM
